Drawing on BindingDB's records for doi:10.1021/cb100060v (Binghamton University, 2010), this text covers Ki for three compounds.

Where only a bound is given, the exact number is not on record here.

The assay deals with T1, Tubulin--tyrosine ligase (Homo sapiens, UniProt Q8NG68).
T1 sequence (Q8NG68 whole entry): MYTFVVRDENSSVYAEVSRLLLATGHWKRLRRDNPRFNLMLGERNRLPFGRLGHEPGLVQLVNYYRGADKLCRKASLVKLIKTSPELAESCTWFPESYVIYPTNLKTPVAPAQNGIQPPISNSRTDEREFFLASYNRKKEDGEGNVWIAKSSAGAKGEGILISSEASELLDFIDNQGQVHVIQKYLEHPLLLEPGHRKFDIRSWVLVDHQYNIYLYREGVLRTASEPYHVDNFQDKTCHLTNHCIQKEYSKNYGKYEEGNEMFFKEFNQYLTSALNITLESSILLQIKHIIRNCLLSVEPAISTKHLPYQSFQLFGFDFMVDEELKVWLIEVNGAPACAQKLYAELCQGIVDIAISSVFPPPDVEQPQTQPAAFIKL
As to the kind of experiment: [3H]-Tyr Incorporation Assay. The conditions noted are these: pH 6.8; 37 °C. From the text: Inhibition of [3H]-L-tyrosine incorporation into tubulin by enzyme tubulin tyrosine ligase (TTL).
On to `[N-]=[N+]=Nc1cc(CC(N)C(=O)O)ccc1O` (stereo not drawn) [3-Azidotyrosine], for which the affinity, expressed as Ki, was 200 µM.

For `NC(Cc1ccc(O)c(C=O)c1)C(=O)O` (stereo not drawn) [3-Formyltyrosine], the Ki (commonly a measure of affinity in units of concentration, obtained from inhibition or displacement) was found to be 300 µM. This Ki is about 1.5-fold higher than that of the compound before.

`Nc1ccc(CC(N)C(=O)O)cc1` (stereo not drawn) [4-Aminophenylalanine]: the Ki is > 4000 µM.
